Experimental data reported in ChEMBL document CHEMBL1201862, “PubChem BioAssay data set” (2004).
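These data come from cells grown in 96-well plates and exposed to compound for 48 hours at five concentrations. At the GI50, growth is halved.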 Activity calls are given as the source filed them. No stated cut-off is given here; in the data, active = GI50 up to about 1.1 µM and inactive = higher.

Legend:
Experiment in all cases: NCI-60 cell line screen, 48 h
ACHN = test system: ACHN
RXF 393 = test system: RXF 393
XF498 = test system: XF498
HCT-15 = test system: HCT-15
HT-29 = test system: HT-29
NCI-H226 = test system: NCI-H226
HCT-116 = test system: HCT-116
KM12 = test system: KM12
HOP-62 = test system: HOP-62
SF-268 = test system: SF-268
U-251 = test system: U-251
NCI-H522 = test system: NCI-H522
SK-MEL-2 = test system: SK-MEL-2
EKVX = test system: EKVX
HOP-92 = test system: HOP-92
DMS-273 = test system: DMS-273
MOLT-4 = test system: MOLT-4
786-0 = test system: 786-0
DLD-1 = test system: DLD-1
SF-295 = test system: SF-295
A549 = test system: A549
TK-10 = test system: TK-10
SR = test system: SR
SK-MEL-28 = test system: SK-MEL-28
IGROV-1 = test system: IGROV-1
OVCAR-3 = test system: OVCAR-3
OVCAR-8 = test system: OVCAR-8
HOP-18 = test system: HOP-18
LOX IMVI = test system: LOX IMVI
SK-MEL-5 = test system: SK-MEL-5
CCRF-CEM = test system: CCRF-CEM
UACC-62 = test system: UACC-62
Malme-3M = test system: Malme-3M
DMS-114 = test system: DMS-114
SF-539 = test system: SF-539
OVCAR-5 = test system: OVCAR-5
SNB-19 = test system: SNB-19
CAKI-1 = test system: CAKI-1
UACC-257 = test system: UACC-257
M19-MEL = test system: M19-MEL
RXF 631 = test system: RXF 631
NCI-H460 = test system: NCI-H460
NCI-H23 = test system: NCI-H23
SN12C = test system: SN12C
HCC 2998 = test system: HCC 2998
SW-620 = test system: SW-620
K562 = test system: K562
SK-OV-3 = test system: SK-OV-3
LXFL 529 = test system: LXFL 529
KM-20L2 = test system: KM-20L2
HL-60 = test system: HL-60
RPMI-8226 = test system: RPMI-8226
COLO 205 = test system: COLO 205
M14 = test system: M14
UO-31 = test system: UO-31
SNB-78 = test system: SNB-78
A498 = test system: A498
OVCAR-4 = test system: OVCAR-4
SNB-75 = test system: SNB-75

Measured: GI50

Cc1nc2sccn2c1C(=O)N/N=C1\SCC(=O)N1C
inactive: ACHN > 100 µM | RXF 393 > 100 µM | XF498 > 100 µM | HT-29 > 100 µM | NCI-H226 > 100 µM | HCT-116 > 100 µM | KM12 > 100 µM | HOP-62 > 100 µM | SF-268 > 100 µM | U-251 > 100 µM | NCI-H522 > 100 µM | SK-MEL-2 > 100 µM | EKVX > 100 µM | HOP-92 > 100 µM | DMS-273 > 100 µM | MOLT-4 > 100 µM | 786-0 > 100 µM | DLD-1 > 100 µM | SF-295 > 100 µM | A549 > 100 µM | TK-10 > 100 µM | SR > 100 µM | SK-MEL-28 > 100 µM | IGROV-1 > 100 µM | OVCAR-3 > 100 µM | OVCAR-8 > 100 µM | HOP-18 26.3 µM | LOX IMVI > 100 µM | SK-MEL-5 > 100 µM | CCRF-CEM > 100 µM | UACC-62 > 100 µM | Malme-3M > 100 µM | DMS-114 > 100 µM | SF-539 > 100 µM | OVCAR-5 > 100 µM | SNB-19 > 100 µM | CAKI-1 > 100 µM | UACC-257 > 100 µM | M19-MEL > 100 µM | RXF 631 > 100 µM | NCI-H460 > 100 µM | NCI-H23 > 100 µM | SN12C > 100 µM | HCC 2998 > 100 µM | SW-620 > 100 µM | K562 > 100 µM | SK-OV-3 > 100 µM | LXFL 529 > 100 µM | KM-20L2 > 100 µM | HL-60 > 100 µM | RPMI-8226 > 100 µM | COLO 205 > 100 µM
> 100 µM: HCT-15

CCOC1=C2C(C)(CCC3[C@@]4(C)C=CC(=O)C(C)(C)C4CC(O)[C@@]23C)C(c2ccoc2)C1=O (some centres undefined)
inactive: ACHN 18.4 µM | RXF 393 16.1 µM | XF498 > 10 µM | HT-29 10.9 µM | M14 21.8 µM | NCI-H226 22 µM | HCT-116 11.3 µM | KM12 15.2 µM | HOP-62 20.5 µM | UO-31 14.5 µM | SF-268 24.2 µM | U-251 18 µM | SK-MEL-2 19.2 µM | EKVX 18.5 µM | HOP-92 17.9 µM | DMS-273 25.2 µM | MOLT-4 7 µM | 786-0 15.3 µM | DLD-1 11.4 µM | SF-295 12.8 µM | A549 21.1 µM | TK-10 25.2 µM | SK-MEL-28 15.6 µM | IGROV-1 12.4 µM | SNB-78 38.5 µM | OVCAR-3 17 µM | OVCAR-8 18.3 µM | HOP-18 33.7 µM | A498 17.3 µM | LOX IMVI 14.9 µM | SK-MEL-5 15.2 µM | CCRF-CEM 7.93 µM | UACC-62 18.7 µM | OVCAR-4 17.2 µM | Malme-3M > 10 µM | DMS-114 15.6 µM | SF-539 17.6 µM | OVCAR-5 19.2 µM | SNB-19 27.2 µM | CAKI-1 20.7 µM | UACC-257 23.7 µM | M19-MEL 18.9 µM | RXF 631 17.9 µM | NCI-H460 13.7 µM | SNB-75 54.3 µM | NCI-H23 13.1 µM | SN12C 25.1 µM | HCC 2998 16.3 µM | SW-620 17.2 µM | K562 7.24 µM | SK-OV-3 26.4 µM | KM-20L2 17.1 µM | HL-60 14.4 µM | RPMI-8226 15.6 µM | COLO 205 13.1 µM
11.7 µM: HCT-15
